Laboratory results as given in patent publication US6440989B2, “Phenyl-substituted tricyclic inhibitors of farnesyl-protein transferase” (Schering Corporation, priority 1997, dated 2002).

Target: T1, partially purified rat brain farnesyl protein transferase (FPT) (Rattus norvegicus, UniProt Q02293+Q04631)
T1 construct: partially purified rat brain farnesyl protein transferase (FPT); from tissue; host or cells: rat brain
Assay: In vitro enzyme assay: inhibition of Ras-CVLS farnesylation by farnesyl protein transferase
Format: biochemical
Description: 1. In vitro enzyme assays: FPT IC50 (inhibition of farnesyl protein transferase, in vitro enzyme assay) are determined by the methods disclosed in WO/10515 or WO 95110516.

SMILES	IC50
COc1cc(C)cc2c1C(C1CCN(C(=O)Cc3cc[n+]([O-])cc3)CC1)c1ncc(Br)cc1CC2 (racemic) [Example 3, (+,−)-4-(3-Bromo-10-methoxy-8-methyl-6,11-dihydro-5H-benzo[5,6]cyclohepta[1,2-b]pyridin-11-yl)-1-(4-pyridinylacetyl)piperidine N1-oxide]	3.2 nM
COc1cc(C)cc2c1C(C1CCN(C(=O)Cc3cc[n+]([O-])cc3)CC1)c1ncccc1CC2 (racemic) [Example 4, (+,−)-4-(6,11-dihydro-10-methoxy-8-methyl-5H-benzo[5,6]cyclohepta[1,2-b]pyridin-11-yl)-1-(4-pyridinylacetyl)piperidine N-1 oxide]	140 nM
Cc1cc(O)c2c(c1)CCc1cc(Br)cnc1C2C1CCN(C(=O)Cc2cc[n+]([O-])cc2)CC1 (racemic) [Example 9, (+,−)-4-(3-Bromo-10-hydroxy-8-methyl-5,6-dihydro-11H-benzo[5,6]cyclohepta[1,2-b]pyridin-11-yl)-1-(4-pyridinylacetyl)piperidine N1-oxide]	120 nM
COc1cc(C)cc2c1C(N1CCN(C(=O)Cc3cc[n+]([O-])cc3)CC1)c1ncc(Br)cc1CC2 (racemic) [Example 10, (+,−)-1-(3-Bromo-10-methoxy-8-methyl-6,11-dihydro-5H-benzo[5,6]cyclohepta[1,2-b]pyridin-1 1-yl)-4-(4-pyridinylacetyl)piperazine N4-oxide]	16 nM
Cc1cccc2c1CCc1cc(Br)cnc1C2N1CCN(C(=O)Cc2cc[n+]([O-])cc2)CC1 (racemic) [Example 14, (+,−)-1-(3-Bromo-7-methyl-6,11-dihydro-5H-benzo[5,6]cyclohepta[1,2-b]pyridin-11-yl)-4-(4-pyridinylacetyl)piperazine N4-oxide]	110 nM
Cc1ccc(C)c2c1CCc1cc(Br)cnc1C2N1CCN(C(=O)Cc2cc[n+]([O-])cc2)CC1 (racemic) [Example 15, (+,−)-1-(3-Bromo-7,10-dimethyl-6,11-dihydro-5H-benzo[5,6]cyclohepta[1,2-b]pyridin-11-yl)-4-(4-pyridinylacetyl)piperazine N4-oxide]	130 nM
Cc1ccc2c(c1)CCc1cc(Br)cnc1C2N1CCN(C(=O)Cc2cc[n+]([O-])cc2)CC1 (racemic) [Example 16, (+,−)-1-(3-Bromo-8-methyl-6,11-dihydro-5H-benzo[5,6]cyclohepta[1,2-b]pyridin-11-yl)-4-(4-pyridinylacetyl)piperazine N4-oxide]	64 nM
COc1ccc2c(c1)CCc1cc(Br)cnc1C2N1CCN(C(=O)Cc2cc[n+]([O-])cc2)CC1 (racemic) [Example 17, (+,−)-1-(3-Bromo-6,11-dihydro-8-methoxy-5H-benzo[5,6]cyclohepta[1 ,2-b]pyridin-11-yl)-4-(4-pyridinylacetyl)piperazine N4-oxide]	290 nM
Cc1cc(C)c2c(c1)CCc1cc(Br)cnc1C2N1CCN(C(=O)Cc2cc[n+]([O-])cc2)CC1 (racemic) [Example 18, (+,−)-1-(3-Bromo-6,11-dihydro-8,10-dimethyl-5H-benzo[5,6]cyclohepta[1,2-b]pyridin-11-yl)-4-(4-pyridinylacetyl)piperazine N4-oxide]	43 nM
Cc1cc(Br)c2c(c1)CCc1cc(Br)cnc1C2N1CCN(C(=O)Cc2cc[n+]([O-])cc2)CC1 (racemic) [Example 21]	4.8 nM
Cc1cc(Br)cc2c1C(N1CCN(C(=O)Cc3cc[n+]([O-])cc3)CC1)c1ncc(Br)cc1CC2 (racemic) [Example 22, (+,−)-1-(3,8-Dibromo-6,11-dihydro-10-methyl-5H-benzo[5,6]cyclohepta[1,2-b]pyridin-11-yl)-4-(4-pyridinylacetyl)piperazine N4-oxide]	9.9 nM
COc1cc(C)cc2c1C(C1CCN(C(=O)Cc3cc[n+]([O-])cc3)CC1)c1ncc(C(C)(C)O)cc1CC2 (racemic) [Example 23, (+,−)-4-[6,11-dihydro-3-(1-hydroxy-1-methylethyl)-10-methoxy-8-methyl-5H-benzo[5,6]cyclohepta[1,2-b]pyridin-11-yl]-1-(4-pyridinylacetyl)piperidine N1-oxide]	> 200 nM
COc1cc(C)c2c(c1)CCc1cc(Br)cnc1C2N1CCN(C(=O)Cc2cc[n+]([O-])cc2)CC1 (racemic) [Example 26, (+,−)-1-(3-Bromo-8-methoxy-10-methyl-6,11-dihydro-5H-benzo[5,6]cyclohepta[1 ,2-b]pyridin-11-yl)-4-(4-pyridinylacetyl)piperzazine N4-oxide]	58 nM
COc1cc(C)cc2c1C(C1CCN(C(=O)Cc3cc[n+]([O-])cc3)CC1)c1ncc(C3CC3)cc1CC2 (racemic) [Example 32]	> 200 nM
COc1cc(C)cc2c1C(N1CCN(C(=O)Cc3cc[n+]([O-])cc3)CC1)c1ncc(Br)cc1CC2 (single isomer, unassigned; (+)) [Example 20, (+)-1-(3-Bromo-10-methoxy-8-methyl-6,11-dihydro-5H-benzo[5,6]cyclohepta[1,2-b]pyridin-11-yl)-4-(4-pyridinylacetyl)piperazine N4-oxide, (+) enantiomer]	> 180 nM
COc1cc(C)cc2c1C(C1CCN(C(=O)Cc3cc[n+]([O-])cc3)CC1)c1ncc(Br)cc1CC2 (single isomer, unassigned; (+)) [Example 24, (+)-4-(3-Bromo-10-methoxy-8-methyl-6,11-dihydro-5H-benzo[5,6]cyclohepta[1,2-b]pyridin-11-yl)-4-(4-pyridinylacetyl)piperidine N1-oxide, (+) enantiomer]	3.6 nM
Cc1cc(Br)c2c(c1)CCc1cc(Br)cnc1C2C1CCN(C(=O)Cc2cc[n+]([O-])cc2)CC1 (single isomer, unassigned; (+)) [Example 33, (+) 4-(3-Bromo-6,11-dihydro-10-bromo-8-methyl-5H-benzo[5,6]cyclohepta[1,2-b]pyridin-11-yl)-1-(4-pyridinylacetyl)piperidine N1 -Oxide]	1.2 nM
Cc1cc(Br)c2c(c1)CCc1cc(Br)cnc1C2(O)C1CCN(C(=O)Cc2cc[n+]([O-])cc2)CC1 (single isomer, unassigned; (+)) [Example 35, (+) 4-(3-Bromo-6,11-dihydro-11-hydroxy-10-bromo-8-methyl-5H-benzo[5,6]cyclohepta[1,2-b]pyridin-11-yl)-1-(4-pyridinylacetyl)piperidine N1-Oxide]	10.8 nM
COc1cc(C)cc2c1C(N1CCN(C(=O)Cc3cc[n+]([O-])cc3)CC1)c1ncc(Br)cc1CC2 (single isomer, unassigned; (-)) [Example 19, (−)-1-(3-Bromo-10-methoxy-8-methyl-6,11-dihydro-5H-benzo[5,6]cyclohepta[1,2-b]pyridin-11-yl)-4-(4-pyridinylacetyl)piperazine N4-oxide, (−) enantiomer]	4.2 nM
COc1cc(C)cc2c1C(C1CCN(C(=O)Cc3cc[n+]([O-])cc3)CC1)c1ncc(Br)cc1CC2 (single isomer, unassigned; (-)) [Example 25, (−)-4-(3-Bromo-10-methoxy-8-methyl-6,11-dihydro-5H-benzo[5,6]cyclohepta[1,2-b]pyridin-11-yl)-4-(4-pyridinylacetyl)piperidine N1-oxide, (−) enantiomer]	220 nM
Cc1cc(Br)c2c(c1)CCc1cc(Br)cnc1C2C1CCN(C(=O)Cc2cc[n+]([O-])cc2)CC1 (single isomer, unassigned; (-)) [Example 34, (−) 4-(3-Bromo-6,11-dihydro-10-bromo-8-methyl-5H-benzo[5,6]cyclohepta[1,2-b]pyridin-11-yl)-1-(4-pyridinylacetyl)piperidine N1-Oxide]	> 16 nM
Cc1cc(Br)c2c(c1)CCc1cc(Br)cnc1C2(O)C1CCN(C(=O)Cc2cc[n+]([O-])cc2)CC1 (single isomer, unassigned; (-)) [Example 36, (−) 4-(3-Bromo-6,11-dihydro-11-hydroxy-10-bromo-8-methyl-5H-benzo[5,6]cyclohepta[1,2-b]pyridin-11-yl)-1-(4-pyridinylacetyl)piperidine N1-Oxide]	5.4 nM
COc1cc2c(c(OC)c1)C(N1CCN(C(=O)Cc3cc[n+]([O-])cc3)CC1)c1ncc(Br)cc1CC2 (stereo not shown) [Example 1, 1-(3-Bromo-6,11-dihydro-8,10-dimethoxy-5H-benzo[5,6]cyclohepta[1,2-b]pyridin-11-yl)-4-(4-pyridinylacetyl)piperazine N4-oxide]	67 nM
COc1cc(C)cc2c1C(C1CCN(C(=O)Cc3cc[n+]([O-])cc3)CC1)c1ncc(C)cc1CC2 (stereo not shown) [Example 2, 4-(6,11-dihydro-10-methoxy-3,8-dimethyl-5H-benzo[5,6]cyclohepta[1,2-b]pyridin-11-yl)-1-(4-pyridinylacetyl)piperidine N1-15 oxide]	34 nM
COc1cc(C)c(Cl)c2c1C(=C1CCN(C(=O)Cc3cc[n+]([O-])cc3)CC1)c1ncccc1CC2 [Example 5, (+,−)-4-(7-Chloro-5,6-dihydro-8-methyl-10-methoxy-11H-benzo[5,6]cyclohepta[1,2-b]pyridin-11-ylidene)-1-(4-pyridinylacetyl)piperidine N1-oxide]	> 200 nM
Cc1cc(O)c2c(c1)CCc1cc(Br)cnc1C2=C1CCN(C(=O)Cc2cc[n+]([O-])cc2)CC1 [Example 6, (+,−)-4-(3-Bromo-10-hydroxy-8-methyl--5,6-dihydro-11H-benzo[5,6]cyclohepta[1,2-b]pyridin-11-ylidene)-1-(4-pyridinylacetyl)piperidine N1-oxide]	45 nM
COc1cc(C)cc2c1C(=C1CCN(C(=O)Cc3cc[n+]([O-])cc3)CC1)c1ncc(C)cc1CC2 [Example 7, 4-(5,6-dihydro-10-methoxy-3,8-dimethyl-11H-benzo[5,6]cyclohepta[1,2-b]pyridin-11-ylidene)-1-(4-pyridinylacetyl)piperidine N1-oxide]	60 nM
COc1cc(C)cc2c1C(=C1CCN(C(=O)Cc3cc[n+]([O-])cc3)CC1)c1ncc(Br)cc1CC2 [Example 8, (+,−)-4-(3-bromo-10-methoxy-8-methyl-5,6-dihydro-11H-benzo[5,6]cyclohepta[1,2-b]pyridin-11-ylidene)-1-(4-pyridinylacetyl)piperidine N1-oxide]	30 nM
